# In the NIST ThermoML archive (doi:10.1016/j.fluid.2006.01.014):
# Numbers after ± are expanded uncertainties.
# Conditions: Liquid; Ebulliometric method (Recirculating still)
row,Normal boiling temperature,Compound
1,80.01 ± 0.2 °C,c1ccccc1 [benzene]
2,70.31 ± 0.2 °C,C[Si](C)(Cl)Cl [dichlorodimethylsilane]
3,66.4 ± 0.2 °C,C[Si](Cl)(Cl)Cl [trichloromethylsilane]
